Measurements reported in the NIST ThermoML archive (doi:10.1016/j.fluid.2008.09.026).
Numbers after ± are expanded uncertainties.

Conditions: Liquid, Ebulliometric method (Recirculating still)

CCCCCCC [heptane]
vapor or sublimation pressure (354.72 K): 60 ± 0.1 kPa
vapor or sublimation pressure (363.74 K): 80 ± 1 kPa
vapor or sublimation pressure (371.2 K): 100 ± 0.1 kPa

CCCCCC [hexane]
vapor or sublimation pressure (326.11 K): 60 ± 0.1 kPa
vapor or sublimation pressure (334.61 K): 80 ± 0.1 kPa
vapor or sublimation pressure (341.48 K): 100 ± 0.1 kPa

CC(C)OCCO [2-isopropoxyethanol]
vapor or sublimation pressure (398.12 K): 60 ± 0.1 kPa
vapor or sublimation pressure (407.13 K): 80 ± 0.1 kPa
vapor or sublimation pressure (414.21 K): 100 ± 0.1 kPa
